The subject of series [1] is 4T1 orthotopically implanted breast tumours. Description: Photodynamic therapy of established breast tumours. It counts as in vivo, Balb/C wild type mice. The procedure:
Balb/C wild type mice with established 4T1 orthotopically implanted breast tumours were administered compound 6 by IT injection. At 24 hours post-injection (allowing compound 6 to clear from non-tumour tissues), mice were placed in clear perspex cages and illuminated (whole body) under red (660 nm) light for a period of 20 minutes. Light (660 nm) was delivered at an intensity of 100 mW/cm^2 for 20 mins continuously, to achieve a total light dose of 120 J/cm^2. […]

Series [2] deals with SKOV3 ovarian cancer cells. Description: Phototoxicity in SKOV3 cells (652 nm laser, AlamarBlue viability). The class given is cell-based, Human. Particulars: for IC90: Homo sapiens, SK-OV-3, light or radiation study. The gist of the method: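 SKOV3 cells were loaded for 24 h with photosensitizer (0–10 μM in DMSO) in medium containing 10% Kollidon-12. After a media change they were irradiated at 652 nm, 50 mW/cm^2 for 5 min (15 J/cm^2), cultured a further 24 h, and viability was read by AlamarBlue in quadruplicate. Phototoxicity IC90 and dark-toxicity IC10 came from variable-slope normalized dose–response fits.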

For series [3], the system named is 4T1 murine breast cancer cells. Description: Tumour localisation and retention, model 1 (subcutaneous 4T1 tumours). The class given is in vivo, Balb/C wild type mice. Here is the method: Model 1 used Balb/C wild type mice implanted subcutaneously with 10^4×4T1 murine breast cancer cells. When tumours reached a palpable size (˜3-6 mm diameter) mice received compound 6 by either oral gavage (ORAL: 2.5 mg/kg), intravenous injection (IV: 1.0 mg/kg), or intratumoral injection (IT: 1.0 mg/kg in […]). To establish compound 6 localisation, mice were imaged using an IVIS Lumina III In Vivo Imaging System (Perkin Elmer) to detect fluorescence at 660 nm when illuminated under blue (400-460 nm) light.
In a second experiment, the localisation of compound 6 at 24 hours post-administration was compared to that of Talaporfin sodium and 5-Aminolevulinic acid (5-ALA), with all compounds injected at 0.1 mg/kg IT. Fluorescence measurements were made using an IVIS Lumina III instrument (as above).

The structures appear in SMILES notation. Read-outs that look alike come from different tables or passages of the source.

In the case of `C=Cc1c(C)c2cc3nc(c(C)c4cc(C)c(cc5nc(cc1[nH]2)C(C)=C5CC)[nH]4)[C@@H](CCC(=O)N(C)CCCS[C@@H]1O[C@H](CO)[C@@H](O)[C@H](O)[C@H]1O)[C@@H]3C` [Compound 6, 3-((7S,8S)-18-ethyl-2,5,8,12,17-pentamethyl-13-vinyl-7H,8H-porphyrin-7-yl)-N-methyl-N-(3-(((2S,3R,4S,5S,6R)-3,4,5-trihydroxy-6-(hydroxymethyl)tetrahydro-2H-pyran-2-yl)thio)propyl)propanamide], in series [1] (IT injection plus 660 nm light 120 J/cm2 at 24 hours, after 14 days), the Tumour response result is “regressed to an undetectable level”. Besides, in series [1] (compound alone, no laser), the “Time to endpoint (tumour size ≥100 mm2)” value was at most 13 days. In addition, in series [1] (compound plus laser, after 3 weeks), the Tumour regrowth result is “no evidence of regrowth”. In addition, the “Time to regression of established tumours to an undetectable level” value in series [1] (compound plus laser, n=2/group) is at most 14 days. Also, the concentration for an effect of 90% (IC90) in series [2] (SKOV3, ovarian clear cell (Table 2), read-out: Phototoxicity IC90) turned out to be 190 nM. The IC90 in series [2] (SKOV3, 24 h uptake, 652 nm laser 50 mW/cm2 5 mins (15 J/cm2), viability 24 h later, read-out: Cellular Toxicity: Phototoxicity IC90) is 60 nM. Further, the IC90 in series [2] (SKOV3, read-out: Phototoxicity apparent IC90) was below 100 nM. In series [2] (SKOV3, IC90), the “Fold increase in cellular phototoxicity compared to compound 2” value is “approximately 4 fold”. Also, the “Tumour localisation at 24 hours post-administration” value in series [3] (0.1 mg/kg IT, primary breast tumours, IVIS fluorescence) is listed as “localised strongly to tumour”. Besides, the “Localisation and retention in tumour tissue” value in series [3] (IT 1.0 mg/kg, model 1) is “at least 48 hours”. Moreover, in series [3] (IV 1.0 mg/kg, model 1), the “Fluorescence retained in tumour” value is given as “at least 4 hours”, the “Time of peak in tumour” value was 1 h and the “Tumour fluorescence at 24 hours post-injection” value is on record as “undetectable”. In series [3] (in all cases (models 1 and 2, all routes)), the “Retention in tumour tissues following administration” value is on record as “at least 24 hours”. Moreover, the “Clearance from healthy tissues” value in series [3] (in all cases, dependent on the tissue type) was in the range of 4 to 16 h. In series [3] (oral gavage 2.5 mg/kg, model 1), the “Time of peak levels in tumour” value was 4 h and the “Time remaining above background in tumour” value is “at least 24 hours”.

By IC90 is commonly meant the point of the concentration-response curve where the effect stands at 90%.

The values are drawn from patent publication US20230365577A1, “Photodynamic Therapy and Diagnosis” (RMW CHO Group Limited, priority 2020, published 2023).
